Laboratory results published in US11485719B2, “Water soluble 3-ketocoumarins” (priority 2017, dated 2022).

Assays:
[1] = Reactivity test, water based clear formulation (FT-IR photopolymerization); settings: 3% wt photoinitiator + 3% wt triethanolamine in UCECOAT7200/Ebecryl 350 99:1
Experimental: The photopolymerizable compositions for the test were prepared dissolving the photoinitiators and the co-initiator, triethanolamine, at a concentration of 3% by weight (wt) each in a mixture 99:1 wt of UCECOAT7200 and Ebecryl 350 (Allnex). The reference compound Omnirad 819 DW (45% wt in water) (COMP-1) was dissolved at a concentration of 6.6% by weight to have the same amount of active content.
(§1) The photopolymerizable compositions placed in the sample lodgment of a FT-IR (FT-IR 430-Jasco), were exposed to two different sources: • 1) a LED source (400 nm) located at a distance of 25 mm from the sample and at an angle of 30°. (Table 1) • 2) A Mercury lamp (160 W) located at a distance of 65 mm from the sample and at an angle of 30°. (Table 2)
(§2) IR spectra were acquired at constant time intervals during the photopolymerization and the reduction over the time of the area of the peaks at 1408 and 810 cm^−1 assigned to the acrylic double bonds was determined using the IR software. This allows quantifying the degree of polymerization and therefore the efficiency of the photoinitiator.
The results at 400 nm, expressed as % of polymerization over the time, are reported in Table 1 and the results with the Mercury lamp are reported in Table 2.

[2] = Reactivity test, water based black inkjet ink (FT-IR photopolymerization); settings: 5.0% wt photoinitiator + 5.0% wt triethanolamine in water based black ink
Experimental: The photopolymerizable compositions for the test were prepared by dissolving the photoinitiators and the co-initiator triethanolamine at a concentration of 5.0% wt each in a water based black ink for ink-jet printing. The reference compound Omnirad 819 DW (45% wt in water) (COMP-1) was dissolved at a concentration of 11% by weight to have the same amount of active content.
as §1, with “(Table 3)” for “(Table 1)”, “(Table 4)” for “(Table 2)”
as §2, with “1408 cm^−1” for “1408”
The results at 400 nm, expressed as % of polymerization over the time, are reported in Table 3 and the results with the Mercury lamp are reported in Table 4.

| Compound | % of polymerization over the time ([1]; LED source 400 nm, 0.5 sec) [%] | % of polymerization over the time ([1]; LED source 400 nm, 2 sec) [%] | % of polymerization over the time ([1]; Mercury lamp 160 W, 0.2 sec) [%] | % of polymerization over the time ([1]; Mercury lamp 160 W, 1 sec) [%] | % of polymerization over the time ([2]; LED source 400 nm, 0.5 sec) [%] | % of polymerization over the time ([2]; LED source 400 nm, 2 sec) [%] | % of polymerization over the time ([2]; Mercury lamp 160 W, 0.2 sec) [%] | % of polymerization over the time ([2]; Mercury lamp 160 W, 1 sec) [%] |
| --- | --- | --- | --- | --- | --- | --- | --- | --- |
| COc1cc(OC)c2cc(C(=O)c3ccc(CC[N+]4(C)CCCCC4)cc3)c(=O)oc2c1.[Cl-] [Example 14] | 23 | 27 | 15 | 23 | 38 | 62 | 67 | 89 |
| COc1cc(OC)c2cc(C(=O)c3ccc(CCC(=O)O)cc3)c(=O)oc2c1 [Example 8] | 7 | 15 | 9 | 16 | – | – | – | – |
